Measured values taken from BindingDB's records for doi:10.7270/Q2M043TQ (Nmmlsc, 2010).

The compounds below were run against T1, Regulator of G-protein signaling 8 (Homo sapiens, UniProt P57771) (assay: RGS8-Galphao interaction modulators, SAR follow-up, biochemical, multiplex bead flow cytometry, SAR compounds (AID 2307)). Settings: not given.
T1 sequence (P57771 whole entry): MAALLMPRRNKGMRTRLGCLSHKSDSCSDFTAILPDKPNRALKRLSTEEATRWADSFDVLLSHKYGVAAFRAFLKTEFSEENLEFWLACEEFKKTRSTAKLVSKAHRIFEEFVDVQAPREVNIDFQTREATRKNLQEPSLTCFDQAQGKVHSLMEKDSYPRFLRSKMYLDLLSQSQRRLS

Row | EC50 [nM] | SMILES
1 | 21 | CN1CCN(C2=C(Cl)C(=O)C(c3cnc(N4CCCCC4)s3)=C(Cl)C2=O)CC1
2 | 573 | CCN=c1scc(C)n1N=Cc1ccc(O)c(O)c1O
3 | 411 | CCN(CC)S(=O)(=O)c1cccc(C(=O)NN=Cc2ccc(O)c(O)c2O)c1
4 | 522 | Cc1[nH]n(-c2ccccc2)c(=S)c1C=NCCCN=Cc1c(C)[nH]n(-c2ccccc2)c1=S
5 | 3180 | Cc1cccc(N2CCN(C(=O)COc3nsc4nc(C)cc(C)c34)CC2C)c1 (configuration not stated)
6 | > 30000 | Cc1cccc(N2CCN(C(=O)Cn3ccc4nc(C)cc(C)c4c3=O)CC2C)c1 (configuration not stated) [2,4-dimethyl-6-[2-[3-methyl-4-(3-methylphenyl)piperazin-1-yl]-2-oxidanylidene-ethyl]-1,6-naphthyridin-5-one]
7 | > 30000 | Cc1cc(C)c2c(=O)n(CC(=O)N3CCN(c4ccccc4)CC3)ccc2n1 [2,4-dimethyl-6-[2-oxidanylidene-2-(4-phenylpiperazin-1-yl)ethyl]-1,6-naphthyridin-5-one]
8 | > 30000 | Cc1cc(C)c2c(n1)CCN(CC(=O)N1CCN(c3ccccc3)CC1)C2=O [2,4-dimethyl-6-[2-oxidanylidene-2-(4-phenylpiperazin-1-yl)ethyl]-7,8-dihydro-1,6-naphthyridin-5-one]
9 | 29 | O=c1c2ccccc2sn1-c1ccc(S(=O)(=O)N2CCCC2)cc1 [2-(4-pyrrolidin-1-ylsulfonylphenyl)-1,2-benzothiazol-3-one]
10 | 550 | Cc1cccc(N2CCN(C(=O)Cn3sc4nc(C)cc(C)c4c3=O)CC2C)c1 (configuration not stated) [2-[2-keto-2-[3-methyl-4-(m-tolyl)piperazino]ethyl]-4,6-dimethyl-isothiazolo[5,4-b]pyridin-3-one]
11 | > 30000 | Cc1cccc(N2CCN(C(=O)COc3noc4nc(C)cc(C)c34)CC2C)c1 (configuration not stated) [2-[(4,6-dimethyl-[1,2]oxazolo[5,4-b]pyridin-3-yl)oxy]-1-[3-methyl-4-(3-methylphenyl)piperazin-1-yl]ethanone]
12 | > 30000 | O=c1c2ccccc2sn1-c1ccccc1 [2-phenyl-1,2-benzothiazol-3-one]
13 | 3130 | CCN(CC)S(=O)(=O)c1cccc(-c2n[nH]c(=S)n2N=Cc2ccc(C(=O)OC)cc2)c1 [4-[(E)-[3-[3-(diethylsulfamoyl)phenyl]-5-thioxo-1H-1,2,4-triazol-4-yl]iminomethyl]benzoic acid methyl ester]
14 | 29 | NS(=O)(=O)c1ccc(N=NCc2ccc(O)c(O)c2O)c([N+](=O)[O-])c1 [4-[[(E)-(2,3-dihydroxy-4-oxo-1-cyclohexa-2,5-dienylidene)methyl]hydrazo]-3-nitrobenzenesulfonamide]
15 | 318 | CN=c1scc(C)n1N=Cc1ccc(O)c(O)c1O [(4E)-2,3-dihydroxy-4-[[(4-methyl-2-methylimino-1,3-thiazol-3-yl)amino]methylidene]cyclohexa-2,5-dien-1-one]
16 | 218 | Cc1[nH]n(-c2ccccc2)c(=S)c1/C=N/c1cccc([N+](=O)[O-])c1 [(4E)-5-methyl-4-[(3-nitroanilino)methylene]-2-phenyl-2-pyrazoline-3-thione]
17 | > 30000 | Cc1cccc(N2CCN(C(=O)CN3CCc4nc(C)cc(C)c4C3=O)CC2C)c1 (configuration not stated) [KUC103675N]
18 | 86 | CC(=O)OCCCNc1cc(Sc2nc3ccccc3s2)c2nonc2c1[N+](=O)[O-] [MLS000521052]
19 | 127 | Cc1cc(Cl)ccc1/N=c1/ssnc1Cl [MLS000539990]
20 | 78 | O=C1C(Cl)=C(N2CCCCC2)C(=O)C(Cl)=C1c1cnc(N2CCCCC2)s1 [MLS000550549]
21 | 4340 | CCC(=O)NC(c1ccc(C)cc1)c1cc([N+](=O)[O-])c2cccnc2c1O (configuration not stated) [MLS000553854]
22 | 177 | COc1ccc(C2=CC(=O)C=CC2=O)cc1 [MLS001029846]
23 | 123 | O=C(COc1ccccc1C(=O)NN=Cc1ccc(O)c(O)c1)NN=Cc1ccc(O)c(O)c1 [N''-[(Z)-(3-hydroxy-4-oxo-1-cyclohexa-2,5-dienylidene)methyl]-2-[2-[[(Z)-(3-hydroxy-4-oxo-1-cyclohexa-2,5-dienylidene)methyl]hydrazo]-2-oxoethoxy]benzohydrazide]
24 | 701 | CC1(C)OC(=O)C(=Cc2ccc(-c3ccc(S(N)(=O)=O)cc3)o2)C(=O)O1 [SMR000273939]
25 | 384 | O=C(Cc1csc(N2CCOCC2)n1)NN=Cc1ccc(O)c(O)c1O [SMR000369439]
26 | 489 | Nc1c(C(=O)NCC2CCCO2)sc2nc3c(c(-c4ccco4)c12)CC/C3=C/c1ccco1 (configuration not stated) [UNM-0000305796]

Same assay, conditions: inactive by the depositor's call

Row | EC50 [nM] | SMILES
27 | 3680 | CCOc1ccccc1-c1c2cc(O)c(=O)cc-2oc2cc(O)c(O)cc12 [MLS000578271]
